In the supplement of paper PMC10307832:

Legend:
Assay in all cases: relative viability (nuclei count vs DMSO), 5 days (fraction); higher = more cells survive
[1] = compound: O=c1[nH]cc(F)c(=O)[nH]1 [5-Fluorouracil] + CC(C)C[C@H](NC(=O)[C@H](Cc1ccccc1)NC(=O)c1cnccn1)B(O)O [Bortezomib] (partner 0.002 µM)
How it was run: (§1)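 Five library-drug doses in √10 steps were combined with a fixed anchor-drug dose, or a single drug was given alone, by pin tool to lung cancer cell lines in 1536-well plates the day after seeding. Nuclei were stained and counted after 5 days. Relative viability is the nuclei count in treated wells over that in vehicle wells, taken as the median of duplicate plates.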

[2] = compound: CN[C@@H]1C[C@H]2O[C@@](C)([C@@H]1OC)n1c3ccccc3c3c4c(c5c6ccccc6n2c5c31)C(=O)NC4 [Staurosporine] + Cc1cc(Nc2cc(N3CCN(C)CC3)nc(Sc3ccc(NC(=O)C4CC4)cc3)n2)n[nH]1 [Tozasertib] (partner 0.1 µM)
How it was run: as §1

Sulindac + Navitoclax = compound: CC1=C(CC(=O)O)c2cc(F)ccc2/C1=C\c1ccc([S+](C)[O-])cc1 [Sulindac] + CC1(C)CCC(c2ccc(Cl)cc2)=C(CN2CCN(c3ccc(C(=O)NS(=O)(=O)c4ccc(N[C@H](CCN5CCOCC5)CSc5ccccc5)c(S(=O)(=O)C(F)(F)F)c4)cc3)CC2)C1 [Navitoclax] (partner 0.5 µM)
How it was run: as §1

Sulindac + Alpelisib = compound: CC1=C(CC(=O)O)c2cc(F)ccc2/C1=C\c1ccc([S+](C)[O-])cc1 [Sulindac] + Cc1nc(NC(=O)N2CCC[C@H]2C(N)=O)sc1-c1ccnc(C(C)(C)C(F)(F)F)c1 [Alpelisib] (partner 2 µM)
How it was run: as §1

UMC-11 gave a relative viability ([1]; first compound 0.02 µM) of 0.674, a relative viability ([1]; first compound 0.2 µM) of 0.542 and a relative viability ([1]; first compound 0.6325 µM) of 0.368. The relative viability ([1]; first compound 2 µM) was 0.35, the relative viability ([2]; first compound 0.005 µM) was 0.189 and the relative viability ([2]; first compound 0.01581 µM) was 0.161. It also gave a relative viability ([2]; first compound 0.05 µM) of 0.145, a relative viability ([2]; first compound 0.1581 µM) of 0.127 and a relative viability ([2]; first compound 0.5 µM) of 0.122. The relative viability (Sulindac + Navitoclax; first compound 0.08 µM) was 0.3, the relative viability (Sulindac + Navitoclax; first compound 0.253 µM) was 0.305 and the relative viability (Sulindac + Navitoclax; first compound 0.8 µM) was 0.309. It also gave a relative viability (Sulindac + Navitoclax; first compound 2.53 µM) of 0.292, a relative viability (Sulindac + Navitoclax; first compound 8 µM) of 0.38 and a relative viability (Sulindac + Alpelisib; first compound 0.08 µM) of 1.1. The relative viability (Sulindac + Alpelisib; first compound 0.253 µM) was 1.05, the relative viability (Sulindac + Alpelisib; first compound 0.8 µM) was 0.876 and the relative viability (Sulindac + Alpelisib; first compound 2.53 µM) was 0.98. For the same cell line, the relative viability (Sulindac + Alpelisib; first compound 8 µM) was 1.11.
